Molecules are shown by their SMILES. Like-named read-outs stand apart in the source and are kept apart here.

Series [1] concerns WT M2-expressing A/Udorn/72. Briefly: microbe, parasite or virus in culture. Type of series: cell-based. The following applies: Influenza A virus, MDCK, read-out: A/Udorn/72 (S31) EC50.
Another series in a line: in vitro. The following applies: dog.
The target in the next series is WT M2 (A/M2) (Influenza A virus, UniProt P0DOF5). In words: biochemical.
WT M2 (A/M2), sequence (P0DOF5 whole entry, looked up): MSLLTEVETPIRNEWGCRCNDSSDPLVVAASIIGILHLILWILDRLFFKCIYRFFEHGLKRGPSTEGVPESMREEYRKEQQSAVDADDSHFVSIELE

Consider `NC12CC3CC(CC(C3)C1)C2` [Compound 1, amantadine, reference compound], for which the EC50 in series [1] is 0.3 µM. In the series “in vitro”, this compound showed a CC50 of over 300 µM.
For the compound `Brc1ccc(CNC23CC4CC(CC(C4)C2)C3)s1` [Compound 11, N-[(5-bromothiophen-2-yl)methyl]adamantan-1-amine], the EC50 in series [1] came to 4.6 µM. Moreover, the inhibition at 100 µM on WT M2 (A/M2) (read-out: % WT inhibition) and at WT M2 (A/M2) (read-out: % WT(S31) inhibition) was 77% each time. In addition, the CC50 in the series “in vitro” is 123 µM.

The values above are taken from paper PMC4286326 (Journal of the American Chemical Society, 2014).
